Results taken from PubChem BioAssay AID1845212 (Molecular Pharmacology Branch, DTP, NCI, 2023).

Tested on: NCI-H719 tumor spheroids, viability
Experiment: Anticancer human tumor NCI-H719 cell line growth inhibition;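 note: spheroids exposed to compounds for seven days; percent viability relative to DMSO vehicle control as 100%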
Conditions: second compound 0.003 µM; first compound 1 µM; stronger effect = lower value; spheroids with HUVEC and MSC
Method in brief: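 Single agents and combinations were tested on spheroids built from tumor cells plus HUVEC and hMSC, at half-log dilutions starting at or near clinical Cmax, else 10 microM; final DMSO 0.25% (v/v).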

Point of comparison: Cc1cc(C)c(CNC(=O)c2cc(-c3ccc(CN4CCOCC4)cc3)cc3c2cnn3C2CCCC2)c(=O)[nH]1 + CC[C@@]1(O)C(=O)OCc2c1cc1n(c2=O)Cc2cc3c(CN(C)C)c(O)ccc3nc2-1, viability, T/C 51.6%. Against it:
- [2H]c1nc(C)nc([2H])c1-c1cc(NC[C@@H](C)c2cccc3c(C(=O)NC)ccnc23)ncn1 + CC[C@@]1(O)C(=O)OCc2c1cc1n(c2=O)Cc2cc3c(CN(C)C)c(O)ccc3nc2-1 — higher, 52%

Same assay, conditions: second compound 0.003 µM; first compound 3.16 µM; stronger effect = lower value; spheroids with HUVEC and MSC

Point of comparison: CC1COCCN1c1cc(-c2ccnn2C)c2ccnc(-c3ccn[nH]3)c2n1 (stereo unspecified) + CC[C@@]1(O)C(=O)OCc2c1cc1n(c2=O)Cc2cc3c(CN(C)C)c(O)ccc3nc2-1, viability, T/C 5.95%. Against it:
- CC(C)n1c(=O)n(C)c2cnc3cc(F)c(-c4ccc(OCCCN5CCCCC5)nc4)cc3c21 + CC[C@@]1(O)C(=O)OCc2c1cc1n(c2=O)Cc2cc3c(CN(C)C)c(O)ccc3nc2-1 — higher, 67.9%
- COc1cc(C)[nH]c(=O)c1CN1CCc2c(Cl)cc(C(OC)C3COC3)c(Cl)c2C1=O (stereo unspecified) + CC[C@@]1(O)C(=O)OCc2c1cc1n(c2=O)Cc2cc3c(CN(C)C)c(O)ccc3nc2-1 — higher, 77%
- COc1ccc([C@@H](O)c2cc(-c3ncnc4cc(N5CCOCC5)ccc34)c(F)cc2Cl)nn1 + CC[C@@]1(O)C(=O)OCc2c1cc1n(c2=O)Cc2cc3c(CN(C)C)c(O)ccc3nc2-1 — higher, 30.1%
- Cc1cc(C)c(CNC(=O)c2cc(-c3ccc(CN4CCOCC4)cc3)cc3c2cnn3C2CCCC2)c(=O)[nH]1 + CC[C@@]1(O)C(=O)OCc2c1cc1n(c2=O)Cc2cc3c(CN(C)C)c(O)ccc3nc2-1 — higher, 49.1%
- [2H]c1nc(C)nc([2H])c1-c1cc(NC[C@@H](C)c2cccc3c(C(=O)NC)ccnc23)ncn1 + CC[C@@]1(O)C(=O)OCc2c1cc1n(c2=O)Cc2cc3c(CN(C)C)c(O)ccc3nc2-1 — higher, 66%

Same assay, conditions: second compound 0.003 µM; first compound 10 µM; stronger effect = lower value; spheroids with HUVEC and MSC

Point of comparison: [2H]c1nc(C)nc([2H])c1-c1cc(NC[C@@H](C)c2cccc3c(C(=O)NC)ccnc23)ncn1 + CC[C@@]1(O)C(=O)OCc2c1cc1n(c2=O)Cc2cc3c(CN(C)C)c(O)ccc3nc2-1, viability, T/C 51.4%. Against it:
- CC(C)n1c(=O)n(C)c2cnc3cc(F)c(-c4ccc(OCCCN5CCCCC5)nc4)cc3c21 + CC[C@@]1(O)C(=O)OCc2c1cc1n(c2=O)Cc2cc3c(CN(C)C)c(O)ccc3nc2-1 — lower, 50.5%
- CC1COCCN1c1cc(-c2ccnn2C)c2ccnc(-c3ccn[nH]3)c2n1 (stereo unspecified) + CC[C@@]1(O)C(=O)OCc2c1cc1n(c2=O)Cc2cc3c(CN(C)C)c(O)ccc3nc2-1 — lower, 7.37%
- COc1cc(C)[nH]c(=O)c1CN1CCc2c(Cl)cc(C(OC)C3COC3)c(Cl)c2C1=O (stereo unspecified) + CC[C@@]1(O)C(=O)OCc2c1cc1n(c2=O)Cc2cc3c(CN(C)C)c(O)ccc3nc2-1 — higher, 69.1%
- COc1ccc([C@@H](O)c2cc(-c3ncnc4cc(N5CCOCC5)ccc34)c(F)cc2Cl)nn1 + CC[C@@]1(O)C(=O)OCc2c1cc1n(c2=O)Cc2cc3c(CN(C)C)c(O)ccc3nc2-1 — lower, 10.6%
- Cc1cc(C)c(CNC(=O)c2cc(-c3ccc(CN4CCOCC4)cc3)cc3c2cnn3C2CCCC2)c(=O)[nH]1 + CC[C@@]1(O)C(=O)OCc2c1cc1n(c2=O)Cc2cc3c(CN(C)C)c(O)ccc3nc2-1 — lower, 39.2%

Same assay, conditions: second compound 0.00949 µM; first compound 0.0316 µM; stronger effect = lower value; spheroids with HUVEC and MSC

Point of comparison: COc1ccc([C@@H](O)c2cc(-c3ncnc4cc(N5CCOCC5)ccc34)c(F)cc2Cl)nn1 + CC[C@@]1(O)C(=O)OCc2c1cc1n(c2=O)Cc2cc3c(CN(C)C)c(O)ccc3nc2-1, viability, T/C 8.42%. Against it:
- CC(C)n1c(=O)n(C)c2cnc3cc(F)c(-c4ccc(OCCCN5CCCCC5)nc4)cc3c21 + CC[C@@]1(O)C(=O)OCc2c1cc1n(c2=O)Cc2cc3c(CN(C)C)c(O)ccc3nc2-1 — higher, 8.54%
- CC1COCCN1c1cc(-c2ccnn2C)c2ccnc(-c3ccn[nH]3)c2n1 (stereo unspecified) + CC[C@@]1(O)C(=O)OCc2c1cc1n(c2=O)Cc2cc3c(CN(C)C)c(O)ccc3nc2-1 — lower, 5.44%
- COc1cc(C)[nH]c(=O)c1CN1CCc2c(Cl)cc(C(OC)C3COC3)c(Cl)c2C1=O (stereo unspecified) + CC[C@@]1(O)C(=O)OCc2c1cc1n(c2=O)Cc2cc3c(CN(C)C)c(O)ccc3nc2-1 — higher, 12.2%
- Cc1cc(C)c(CNC(=O)c2cc(-c3ccc(CN4CCOCC4)cc3)cc3c2cnn3C2CCCC2)c(=O)[nH]1 + CC[C@@]1(O)C(=O)OCc2c1cc1n(c2=O)Cc2cc3c(CN(C)C)c(O)ccc3nc2-1 — lower, 6.76%
- [2H]c1nc(C)nc([2H])c1-c1cc(NC[C@@H](C)c2cccc3c(C(=O)NC)ccnc23)ncn1 + CC[C@@]1(O)C(=O)OCc2c1cc1n(c2=O)Cc2cc3c(CN(C)C)c(O)ccc3nc2-1 — higher, 10.3%

Same assay, conditions: second compound 0.00949 µM; first compound 0.1 µM; stronger effect = lower value; spheroids with HUVEC and MSC

Point of comparison: [2H]c1nc(C)nc([2H])c1-c1cc(NC[C@@H](C)c2cccc3c(C(=O)NC)ccnc23)ncn1 + CC[C@@]1(O)C(=O)OCc2c1cc1n(c2=O)Cc2cc3c(CN(C)C)c(O)ccc3nc2-1, viability, T/C 8.59%. Against it:
- CC(C)n1c(=O)n(C)c2cnc3cc(F)c(-c4ccc(OCCCN5CCCCC5)nc4)cc3c21 + CC[C@@]1(O)C(=O)OCc2c1cc1n(c2=O)Cc2cc3c(CN(C)C)c(O)ccc3nc2-1 — higher, 8.8%
- CC1COCCN1c1cc(-c2ccnn2C)c2ccnc(-c3ccn[nH]3)c2n1 (stereo unspecified) + CC[C@@]1(O)C(=O)OCc2c1cc1n(c2=O)Cc2cc3c(CN(C)C)c(O)ccc3nc2-1 — lower, 4.76%
- COc1cc(C)[nH]c(=O)c1CN1CCc2c(Cl)cc(C(OC)C3COC3)c(Cl)c2C1=O (stereo unspecified) + CC[C@@]1(O)C(=O)OCc2c1cc1n(c2=O)Cc2cc3c(CN(C)C)c(O)ccc3nc2-1 — higher, 9.34%
- COc1ccc([C@@H](O)c2cc(-c3ncnc4cc(N5CCOCC5)ccc34)c(F)cc2Cl)nn1 + CC[C@@]1(O)C(=O)OCc2c1cc1n(c2=O)Cc2cc3c(CN(C)C)c(O)ccc3nc2-1 — lower, 6.63%
- Cc1cc(C)c(CNC(=O)c2cc(-c3ccc(CN4CCOCC4)cc3)cc3c2cnn3C2CCCC2)c(=O)[nH]1 + CC[C@@]1(O)C(=O)OCc2c1cc1n(c2=O)Cc2cc3c(CN(C)C)c(O)ccc3nc2-1 — lower, 6.82%
